Columns and labels:
[1] = Plasma protein binding, rapid equilibrium dialysis; type: in vitro ADME; conditions: rat, 0.5–10 μg/mL, RED, 37 °C, read-out: unbound fraction (fu) in rat plasma
Procedure: The rat plasma protein binding of IMM-H004 and IMM-H004G (0.5–10 μg/mL) was investigated using a rapid equilibrium dialysis (RED) assay. The RED plate inserts utilized in this assay contained a dialysis membrane with a molecular weight cut-off of 8 kDa (Thermo Fisher Scientific, Waltham, MA, USA). For the assay, aliquots of plasma (0.2 mL) and phosphate-buffered saline (0.35 mL) were added to the sample chamber and buffer chamber, respectively. The plate was then sealed and incubated at 37 °C, 200 rpm for 4 h. Following the dialysis period, the concentrations of IMM-H004 and IMM-H004G were determined using LC-MS/MS. The ratio of the drug concentration in the buffer to that in the plasma chamber was used to calculate the unbound fraction (fu) of the drugs.

In situ brain perfusion = type: in vivo, rat; conditions: 10 μmol/L
Procedure: The rat brain was perfused following a previously described method. Briefly, the common carotid arteries on both sides were cannulated and connected to the perfusion system, while the external carotid artery was ligated. At the beginning of perfusion, the jugular veins on both sides were quickly incised. The perfusion procedure consisted of a preperfusion wash with saline for 1 min, followed by drug infusion (2 µmol/L IMM-H004 or IMM-H004G) for 2, 5, and 10 min, and concluded with a postperfusion wash (saline for 5 min) at a rate of 4.0 mL/min. To examine the impact of P-gp (PSC833, 5 µmol/L) and OATP (rifamycin SV, 100 µmol/L) on BBB transport, the perfusate containing the inhibitor was perfused for 1 min, and then the mixture of IMM-H004 or IMM-H004G (10 µmol/L) and the inhibitor was perfused for 10 min. Following the perfusion, the rats were decapitated, and their brains were homogenized (1:3, w/v) in chilled saline. The concentrations of IMM-H004 and IMM-H004G were then determined by LC-MS/MS.
The unidirectional transfer constant Kin (mL/min/g) was calculated using the following equation:(4) Kin=Qbr/Cpf[…] where Qbr/Cpf is the apparent brain distribution volume, Qbr is the measured amount of compound in brain tissue, Cpf is the concentration of compound in the perfusate, and T is the perfusion time.

[2] = tested on: OAT, OCT, OCTN, BCRP, and MRP; assay: Identification of transporters using inhibitors in hCMEC/D3 cells: other transporters; type: cell-based, human; conditions: substrate 10 μmol/L
Procedure: (§1) The toxicity of all compounds, including inhibitors and substrates, toward hCMEC/D3 cells, was assessed using the 3-(4,5-Dimethylthiazol-2-yl)-2,5-diphenyltetrazolium bromide (MTT) reduction assay as described previously. To assess the effects of pyrilamine-sensitive proton-coupled organic cation (H^+/OC) antiporter, organic anion transporter (OAT), organic anion-transporting polypeptides (OATPs), organic cation transporter (OCT), and novel organic cation–carnitine transporter (OCTN) inhibitors on the uptake process, IMM-H004 or IMM-H004G (10 µmol/L) combined with the inhibitors were added to the medium after preincubating the cells with the inhibitors for 30 min. For evaluating the impact of the multidrug and toxin extrusion transporter (MATE), P-glycoprotein (P-gp), multidrug resistance protein (MRP), and breast cancer resistance protein (BCRP) on the uptake, IMM-H004 or IMM-H004G (10 µmol/L) was preincubated with the cells for 2 h before the addition of the inhibitors. After removing the supernatant, the cells were washed twice with prewarmed HBSS and incubated with fresh HBSS for 20 min. At the end of incubation, the supernatants were collected. […] The protein content of the lysed cells was determined using a bicinchoninic acid (BCA) assay kit (Beyotime Inc., Shanghai, China). The results were expressed as a percentage of the vehicle control.

hCMEC/D3 cells = assay: In vitro metabolism in human brain cells (hCMEC/D3); type: in vitro ADME; conditions: IMM-H004 1–100 μmol/L
Procedure: SH-SY5Y, HEB, and hCMEC/D3 cells were utilized to investigate the in vitro metabolism of IMM-H004 and IMM-H004G in the brain. SH-SY5Y and HEB cells were cultured routinely in Dulbecco’s modified Eagle’s medium (DMEM) containing 10% fetal bovine serum and a 100 U/mL penicillin–100 μg/mL streptomycin solution. hCMEC/D3 cells were seeded on collagen type I coated 24-well plates and cultured in EndoGRO™-MV complete medium following the manufacturer’s guidelines. The cells were incubated at 37 °C, with 5% CO2, and were maintained in a humidified environment. Once the confluence reached 70–80%, the cells were digested using a 0.25% trypsin–EDTA solution, centrifuged at 200× g for 5 min, and then resuspended in a fresh culture medium. For each experiment, after seeding and 24 h incubation, the cells were washed twice with a prewarmed culture medium, and then IMM-H004 or IMM-H004G (1–100 μmol/L) dissolved in the culture medium was added. Incubation was carried out at 37 °C for 5 h or 24 h. After incubation, the supernatants were collected. Subsequently, the cells were washed with cold HBSS three times and lysed in a RIPA lysis buffer (Beyotime Inc., Shanghai, China). The concentrations of IMM-H004 and IMM-H004G were determined by liquid chromatography with tandem mass spectrometry (LC-MS/MS).

[3] = cited from earlier work
P-gp = molecular target: T1, P-gp (Homo sapiens, UniProt P08183); assay: Identification of transporters using inhibitors in hCMEC/D3 cells: P-gp; type: cell-based; conditions: substrate 10 μmol/L, PSC833 5 μmol/L
T1 construct: host or cells: hCMEC/D3
Procedure: as §1

T1 sequence (P08183 whole entry): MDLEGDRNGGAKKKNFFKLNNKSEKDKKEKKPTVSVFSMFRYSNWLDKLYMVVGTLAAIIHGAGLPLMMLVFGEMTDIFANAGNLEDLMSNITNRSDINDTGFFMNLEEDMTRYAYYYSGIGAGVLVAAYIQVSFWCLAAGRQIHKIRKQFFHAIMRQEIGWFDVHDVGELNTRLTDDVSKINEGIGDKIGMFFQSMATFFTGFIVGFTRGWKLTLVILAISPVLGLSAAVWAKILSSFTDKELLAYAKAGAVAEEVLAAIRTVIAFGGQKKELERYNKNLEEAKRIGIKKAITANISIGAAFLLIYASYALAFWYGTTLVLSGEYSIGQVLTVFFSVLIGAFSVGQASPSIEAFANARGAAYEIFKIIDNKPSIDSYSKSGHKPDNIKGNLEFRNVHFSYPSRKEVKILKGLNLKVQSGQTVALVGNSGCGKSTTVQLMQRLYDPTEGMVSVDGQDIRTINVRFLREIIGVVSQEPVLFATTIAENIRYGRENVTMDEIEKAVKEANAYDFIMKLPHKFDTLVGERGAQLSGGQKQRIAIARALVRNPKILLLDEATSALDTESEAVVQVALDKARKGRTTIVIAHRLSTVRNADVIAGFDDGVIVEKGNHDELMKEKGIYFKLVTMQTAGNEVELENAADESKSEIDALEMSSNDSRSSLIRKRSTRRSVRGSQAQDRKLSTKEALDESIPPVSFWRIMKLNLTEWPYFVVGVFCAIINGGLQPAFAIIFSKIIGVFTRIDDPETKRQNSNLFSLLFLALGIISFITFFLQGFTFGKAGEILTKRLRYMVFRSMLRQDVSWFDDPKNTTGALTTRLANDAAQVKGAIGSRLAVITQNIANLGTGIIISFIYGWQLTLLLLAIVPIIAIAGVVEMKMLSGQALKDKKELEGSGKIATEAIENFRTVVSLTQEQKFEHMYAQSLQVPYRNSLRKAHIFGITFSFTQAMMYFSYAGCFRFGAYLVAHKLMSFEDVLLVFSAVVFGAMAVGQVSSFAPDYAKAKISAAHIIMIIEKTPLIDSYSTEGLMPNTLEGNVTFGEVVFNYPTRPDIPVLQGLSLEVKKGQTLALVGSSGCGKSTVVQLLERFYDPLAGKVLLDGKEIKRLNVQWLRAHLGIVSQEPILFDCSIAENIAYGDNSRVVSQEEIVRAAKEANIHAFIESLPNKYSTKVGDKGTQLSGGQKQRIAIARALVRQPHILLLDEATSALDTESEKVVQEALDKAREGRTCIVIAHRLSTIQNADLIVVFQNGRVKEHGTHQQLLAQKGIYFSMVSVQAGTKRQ

Row | fraction unbound at 4 h [1] | increase in Kin value with P-gp inhibitor PSC833 compared to control (In situ brain perfusion; PSC833 5 μmol/L, 10 min perfusion, rat) [times] | Kin value relative to that of IMM-H004G (In situ brain perfusion; in situ rat brain perfusion) [times higher] | effect of inhibitors of OAT, OCT, OCTN, BCRP, and MRP on uptake [2] | production of IMM-H004G from IMM-H004 (hCMEC/D3 cells) | uptake with P-gp inhibitor PSC833 relative to control (P-gp) | change in Kin value with OATP inhibitor (In situ brain perfusion; rifamycin SV 100 μmol/L, 10 min perfusion, rat) | Compound | elimination half-life ([3]; rat plasma and brain tissues, intravenous dosing) [h] | brain exposure relative to the parent drug ([3]; rats)
1 | 0.025 ± 0.002 | 4.3 | 18 | No significant impact | not detected | 1.3 times that of the control |  | COc1cc(O)cc2oc(=O)c(N3CCN(C)CC3)c(C)c12 [IMM-H004] | < 1 | 
2 | 0.315 ± 0.008 |  |  | No significant impact |  | without affecting | no significant change | COc1cc(OC2OC(C(=O)O)C(O)C(O)C2O)cc2oc(=O)c(N3CCN(C)CC3)c(C)c12 (stereo not drawn) [IMM-H004G] |  | six times higher

Source: article PMC10975012, “The Active Glucuronide Metabolite of the Brain Protectant IMM-H004 with Poor Blood–Brain Barrier Permeability Demonstrates a High Partition in the Rat Brain via Multiple Mechanisms” (Pharmaceutics, 2024)
